Data set [1] is described as follows: Plasma pharmacokinetics of dovitinib, gemcitabine and capecitabine by LC/MS/MS. Format: in vivo, human. The following applies: for half-life: human, oral, 300 mg, median half-life (T1/2), dovitinib 300 mg.
Data set [2] relates to FGF23. As to the kind of experiment: Plasma FGF23 sandwich ELISA. It is filed as in vivo, human. The following applies: out of 5 patients with paired samples; during the first cycle; dovitinib 300 mg daily 5 days on and 2 days off with gemcitabine and capecitabine. A general note: ELISA stands for enzyme-linked immunosorbent assay.
Data set [3] relates to VEGF. As to the kind of experiment: Plasma VEGF Quantikine ELISA. It is filed as in vivo, human. Conditions: 5 patients, baseline vs after 19 days of dovitinib 300 mg.
For data set [4] the following is noted: human, in vivo.
For data set [5], the system named is basic FGF (bFGF). Description: Plasma bFGF Quantikine ELISA. It is filed as in vivo, human. Conditions: 5 patients, baseline vs after 19 days of dovitinib 300 mg.
Data set [6] concerns the target fibroblast growth factor receptors (FGFRs). The following applies: read-out: IC50 against FGFRs; cited from earlier work.
Data set [7] concerns CYP 1A1/2. The following applies: cited from earlier work.
The mark [8] stands for this setting: AUC 0–8 hours, Day 1, capecitabine 1300 mg/m^2 total daily oral dose divided twice a day, concurrently with dovitinib 300 mg and gemcitabine, N=7.
Setting [9] is: Day 1, capecitabine 1300 mg/m^2 total daily oral dose divided twice a day, concurrently with dovitinib 300 mg and gemcitabine, plasma, N=5.
Setting [10] is: Day 1, capecitabine 1300 mg/m^2 total daily oral dose divided twice a day, concurrently with dovitinib 300 mg and gemcitabine, plasma, N=7.
Setting [11] is: AUC 0–7.5 hours, Day 1, gemcitabine 1000 mg/m^2 intravenously, concurrently with dovitinib 300 mg and capecitabine, N=7.

Consider three compounds from PMC6345595 (American journal of clinical oncology, 2019).

As to `CCCCCOC(=O)Nc1nc(=O)n([C@@H]2O[C@H](C)[C@@H](O)[C@H]2O)cc1F` [capecitabine], in data set [1] (setting [8]), the “AUC Max” value came out at 14.439 µg·h/mL and the “AUC Min” value turned out to be 0.488 µg·h/mL. In addition, in data set [1] (setting [9]), the “T1/2 Max” value turned out to be 4.07 h and the “T1/2 Min” value amounted to 0.68 h. In data set [1] (setting [10]), the “Cmax Max” value worked out at 30.3 µg/mL and the “Cmax Min” value is 0.0988 µg/mL.
Usually half-life stands for how long it takes for the measured level to halve. Lower therefore signals rapid decline. Usually IC50 stands for the concentration at which inhibition is half-maximal. On to `CN1CCN(c2ccc3nc(-c4c(N)c5c(F)cccc5[nH]c4=O)[nH]c3c2)CC1` [dovitinib], for which the “patients with increased plasma FGF23 level” value in data set [2] is given as 4 patients. In addition, the “changes of VEGF plasma level” value in data set [3] is reported as “no observable trend”. The “patients with dose limiting toxicity (grade 3 colitis)” value in data set [4] (1 cycle) is recorded as 1. Also, the “recommended dose for expansion / RP2D” value in data set [4] (po, 21 day) amounted to 300 mg. Also, in data set [1] (300 mg daily dose on 5 days on and 2 days off schedule), the “difference in dovitinib level between Day1 and 19 (autoinduction)” value is “did not observe significant difference”. Further, the “accumulation following 3 weeks of dosing” value in data set [1] (dovitinib 300 mg dose, Day 1 vs Day 19 Cmax and AUC) is “slight accumulation”. For the same compound, the half-life in data set [1] (plasma, Day 1) was roughly 15 h; in data set [1] (plasma, Day 19) it was roughly 13 h. Further, the “changes of bFGF plasma level” value in data set [5] was “no observable trend”. For the same compound, the IC50 in data set [6] was less than 0.01 µM. Further, the metabolizing enzymes entry in data set [7] is “mainly metabolized by CYP 1A1/2 and flavin-containing monooxygenase”.
As to `Nc1ccn([C@@H]2O[C@H](CO)[C@@H](O)C2(F)F)c(=O)n1` [gemcitabine], in data set [1] (setting [11]), the “AUC Max” value turned out to be 12.222 µg·h/mL and the “AUC Min” value amounted to 6.37 µg·h/mL.
